# Structures can show the parent of a compound that is named as a salt.
# Tests used:
# [1] = system: B16/F10 mouse melanoma cells; test: Tumour fixation, full-body scintigraphy of mice grafted with B16/F10 tumours (tumour-to-muscle ratio, spermine competition); format: in vivo; settings: protocol of example 30, 1)
# Description: 10 days post-grafting, the radiolabelled probe was injected into the mice. Imaging was performed according to the protocol described in example 24 above.
# B16/F10 mouse melanoma cells (2.5.10^5 cells) were injected subcutaneously in the right back paw of male C57BL/6 mice. 10 days post-grafting, the complex having formula (II) (14.8 MBq) was injected into 18 mice, 400 μg of spermine having been previously injected into 8 of these mice. Full-body scintigraphic images were then produced 30 min and 2 hours post-injection. For this, the mice, anaesthetised with isoflurane gas, were imaged in the ventral decubitus position on a gamma-camera (γ Imager, BIOSPACE Mesures) with IRIS software (Ariès Nucléaire, France) with the following parameters: • Spectral window: 121-164 KeV • Acquisition time: 3 min • Grid: 256*256
# For all the images, a region of interest was plotted around the tumour and another of the same size was defined on the muscle of the contralateral paw to determine the tumour-to-muscle ratio.
# The study was conducted according to the protocol described in example 30, 1) above with other complexes having formula (II).
# B16 cells = test: In vitro incorporation in cells with spermine competition (gamma counter); format: cell-based, mouse; settings: 30 minutes incubation, 0.2 μM complex, increasing concentration of spermine, FIG. 1
# Description: (§1) A549 and B16 cells were placed in culture in 24-well plates (2.10^5 cells/well). After 24 hours, the cells were incubated for 30 minutes with the complex having formula (II) at various concentrations or with 0.2 μM of complex having formula (II) optionally in the presence of an increasing concentration of spermine used for evaluating competition with the probe. After incubation, the plates were placed on ice and the cells were rinsed with cold 0.9% NaCl supplemented with 1 mM of spermidine. The cells received a treatment with trypsin. They were suspended in PBS. The activity of each well was measured using a gamma counter.
# A549 cells = test: as above; format: cell-based; settings: 30 minutes incubation, 0.2 μM complex, increasing concentration of spermine, FIG. 1
# Description: as §1
# [2] = Plasmatic stability after intravenous injection (radio-HPLC of serum); format: in vivo, mice
# Description: 14.8 MBq of complex having formula (II) were injected intravenously to healthy male C57BL/6 mice. 30 minutes, 1 h, 2 h, 3 h and 5 hours post-injection, blood samples on heparin were taken from the retro-orbital cavity. These samples were then centrifuged for 5 minutes to collect at least 100 μL of serum. 50 enabled exclusion-diffusion radio-HPLC on a TSK SW2000 column+7.8*300 mm 5μ pre-column (Tosoh bioscience) with a mobile phase (flow rate of 1. ml/min at ambient temperature) consisting of 0.9% NaCl (100%). Macaque albumin labelled with ^99mTc was used to test the albumin retention time. The remaining 50 μL of serum was used to perform reverse-phase radio-HPLC, after protein denaturation with acetonitrile, on an XBridge C8 4.6*250 mm 5μ column (Waters, USA) with a mobile phase (flow rate of 1 ml/min at ambient temperature) consisting of water (55%), acetonitrile (45%) and TFA (0.1%).
# [3] = mouse, in vivo
# [4] = Biodistribution in healthy mice; settings: C57BL/6 mice, intravenous, 30 min to 24 hours post-injection
smiles,measurement,setting,value
"NCCCCNCCCNC(=O)c1ccc(NN)nc1 (as salt: hydrochloride) [Example 6, N-[3-(4-amino-butylamino)-propyl]-6-hydrazino-nicotinamide]",melting point,,183 °C
"NCCCNCCCCNCCCNC(=O)c1ccc(NNC(=O)C(F)(F)F)nc1 (as salt: hydrochloride) [Example 14, N-{3-[4-(3-amino-propylamino)-butylamino]-propyl}-6-[N′-(2,2,2-trifluoro-acetyl)-hydrazino]-nicotinamide]",melting point,,237.5 °C
"NCCCCNC(=O)c1ccc(NN)nc1 [Example 3, N-(4-Amino-butyl)-6-hydrazino-nicotinamide]",Tumour-to-muscle ratio compared with the other compounds,[1],lower than with the other compounds
"NCCCCNCCCNC(=O)c1ccc(NN)nc1 [Example 6, N-[3-(4-amino-butylamino)-propyl]-6-hydrazino-nicotinamide]",Tumour-to-muscle ratio compared with the other compounds,[1],lower than with the other compounds
NCCCNCCCCNCCCNC(=O)c1ccc(N[NH][Tc]234([O]CC(CO)(CO)[N]2CC(=O)[O]3)[O]C(=O)C[N]4C(CO)(CO)CO)nc1,Observations,[1]; B16/F10 tumour in C57BL/6 mice,Tumour fixation
same,Effect of spermine on incorporation of the complex,B16 cells,partially inhibits
same,Effect of spermine on incorporation of the complex,A549 cells,partially inhibits
same,Proportion of injected complex eliminated,"[2]; at 30 minutes after intravenous injection, healthy male C57BL/6 mice",38%
same,Trans-chelation of Technetium on plasma albumin,"[2]; from 30 minutes after intravenous injection, exclusion-diffusion radio-HPLC",trans-chelated on the plasma albumin
same,Complex stability in plasma,"[2]; reverse-phase radio-HPLC of serum, 30 minutes to 5 hours post-injection",good complex stability
same,Risk of renal toxicity or side-effects due to dosimetry,[3],no risk of renal toxicity or side-effects due to dosimetry
same,Distribution in organs,[4],distributed quasi-homogeneously throughout the organs
same,Persistence of fixation,[4],only persists in the liver and kidneys

# From patent US20130171067A1, “[…]-99m COMPLEX AS A TOOL FOR THE IN VIVO DIAGNOSIS OF CANCEROUS TUMOURS” (PIERRE FABRE MEDICAMENT, priority 2010, published 2013)
